Source: patent US10006089B2, “MCL-1 as a therapeutic target in SCFFBW7 deficient neoplasm” (Beth Israel Deaconess Medical Center, Inc., priority 2011, dated 2018)
Entries after “also recorded” stand apart in the source; their conditions may differ. Where a SMILES comes first, the peptide text is derived from it. The star is where a group is joined. Cbz = O=C(OCc1ccccc1)*

Experiments:
Format in all cases: cell-based, human
T-ALL cell lines [1] = assay: Cell viability assay (CellTiter-Glo) of T-ALL cell lines; settings: for sensitivity of Fbw7-deficient T-ALL cell lines compared with wild-type Fbw7 lines (cell viability): 0.5% FBS-containing medium, FIG. 13g; for sensitivity of Fbw7-deficient T-ALL cell lines (cell viability): 10% FBS-containing medium, FIG. 12a; for resistance of Fbw7-deficient T-ALL cell lines compared with wild-type Fbw7 lines to apoptotic stimuli (cell viability): FIG. 13c-f; for resistance after re-introduction of 3A-Mcl-1: FIG. 14e-f
Method: (§1) Cell culture including synchronization and transfection has been described^6,28. Wild type and Fbw7−/− DLD1 cell lines were kind gifts from Dr. Bert Vogelstein. Murine T-ALL cell lines derived from Tall transgenic mice were kind gifts from Dr. Michele A. Kelliher. Human T-ALL cell lines were previously described^2. Loucy and CMLT1 T-ALL cell lines were obtained from Jon Aster. For various assays described below, T-ALL cells were cultured in either 0.5% FBS or 10% FBS-containing medium for sorafenib (Alexis Biochemicals) or ABT-737 (Symansis) treatment. In the case of combined treatment with both sorafenib and ABT-737, T-ALL cells were maintained in 10% FBS-containing medium. Lentiviral shRNA virus packaging, retrovirus packaging, and subsequent infections were performed as described previously^28. For cell viability assays, cells were plated at 10,000 per well in 96-well plates, and incubated with the appropriate medium containing sorafenib, ABT-737 or DMSO for 48 h. Assays were performed with CellTiter-Glo Luminescent Cell Viability Assay kit according to the manufacturer's instructions (Promega). For detection of apoptosis, cells treated with various drugs were stained with propidium iodide (Roche), or co-stained with Annexin V-PE and 7-amino-actinomycin D (Annexin V-PE Apoptosis Detection Kit I, BD Bioscience) according to the manufacturer's instructions. Stained cells were sorted with Dako-Cytomation MoFlos sorter (Dako) at the Dana-Farber Cancer Institute FACS core facility.

T-ALL cell lines [2] = assay: 7-AAD/Annexin V double-staining FACS analysis of apoptosis; settings: 48 hours; for effect of sorafenib on ABT-737 sensitivity (apoptosis by FACS): sorafenib and/or ABT-737, 10% FBS
Method: as §1

Mcl-1 [3] = assay: Protein degradation analysis of Myc-Mcl-1 in transfected 293T cells; settings: 293T cells transfected with Myc-Mcl-1, HA-Fbw7, HA-GSK3, FIG. 9a
Method: Cells were transfected with Myc-Mcl-1 along with HA-Fbw7, or Flag-β-TRCP1, and GFP as a negative control, in the presence or absence of HA-GSK3 and/or HA-ERK1. For half-life studies, cycloheximide (20 μg/ml, Sigma) was added to the media 40 h post-transfection. At various time points thereafter, cells were lysed and protein abundances were measured by immunoblot analysis.

Mcl-1 [4] = assay: Immunoblot analysis of Mcl-1 expression in T-ALL cell lines; settings: 0.5% FBS-containing medium, FIG. 13h
Method: Cells were lysed in EBC (50 mM Tris pH 8.0, 120 mM NaCl, 0.5% NP-40) buffer supplemented with protease inhibitors (Complete Mini, Roche) and phosphatase inhibitors (phosphatase inhibitor cocktail set I and II, Calbiochem). The protein concentrations of the lysates were measured using the Bio-Rad Bradford protein assay reagent on a Beckman Coulter DU-800 spectrophotometer. The lysates were then resolved by SDS-PAGE and immunoblotted with the indicated antibodies. For immunoprecipitation, 800 μg lysates were incubated with the appropriate antibody (1-2 μg) for 3-4 h at 4° C. followed by one-hour incubation with Protein-A Sepharose beads (GE Healthcare). Immuno-complexes were washed five times with NETN buffer (20 mM Tris, pH 8.0, 100 mM NaCl, 1 mM EDTA and 0.5% NP-40) before being resolved by SDS-PAGE and immunoblotted with the indicated antibodies. Quantification of the immunoblot band intensity was performed with Image J software.

CN(C)CC[C@H](CSc1ccccc1)Nc1ccc(S(=O)(=O)NC(=O)c2ccc(N3CCN(Cc4ccccc4-c4ccc(Cl)cc4)CC3)cc2)cc1[N+](=O)[O-] [ABT-737]
sensitivity of Fbw7-deficient T-ALL cell lines compared with wild-type Fbw7 lines (cell viability) (T-ALL cell lines [1]; 48 hours): resistant | sensitivity of Fbw7-deficient T-ALL cell lines (cell viability) (T-ALL cell lines [1]; 48 hours): resistant | resistance after re-introduction of wild-type or 3A-Mcl-1 (T-ALL cell lines [1]; DND41 cells, 10% FBS, 48 hours, FIG. 14b): increase in resistance | ABT-737 sensitivity after re-introduction of wild-type Fbw7 (T-ALL cell lines [1]; Fbw7-deficient CMLT1 cells, 10% FBS, 48 hours, FIG. 14a): partially restored its sensitivity | ABT-737 sensitivity after depletion of endogenous Mcl-1 (T-ALL cell lines [1]; Fbw7-deficient T-ALL cell lines, shMcl-1, 10% FBS, 48 hours, FIG. 12c): restored ABT-737 sensitivity | ABT-737-induced apoptosis in Fbw7-deficient T-ALL cells (T-ALL cell lines [2]; 10% FBS, FIG. 13j, also immunoblots of apoptotic biomarkers FIG. 12b): impaired

CC(C)C[C@@H](C=O)NC(=O)[C@H](CC(C)C)NC(=O)[C@H](CC(C)C)NC(=O)OCc1ccccc1 [MG132] (Cbz-Leu-Leu-Leu-aldehyde)
effect on Fbw7/GSK3-mediated Mcl-1 destruction (Mcl-1 [3]): blocked

COC(=O)Nc1nc2ccc(C(=O)c3cccs3)cc2[nH]1 [Nocodazole]
resistance of Fbw7-deficient T-ALL cell lines compared with wild-type Fbw7 lines to apoptotic stimuli (cell viability) (T-ALL cell lines [1]): more resistant

CC(=O)O[C@H]1C(=O)[C@@]2(C)[C@H]([C@H](OC(=O)c3ccccc3)[C@]3(O)C[C@H](OC(=O)[C@H](O)[C@@H](NC(=O)c4ccccc4)c4ccccc4)C(C)=C1C3(C)C)[C@]1(OC(C)=O)CO[C@@H]1C[C@@H]2O [Taxol]
resistance after re-introduction of 3A-Mcl-1 (T-ALL cell lines [1]; DND41 cells): increase in resistance | resistance of Fbw7-deficient T-ALL cell lines compared with wild-type Fbw7 lines to apoptotic stimuli (cell viability) (T-ALL cell lines [1]): more resistant

CC[C@@]1(O)C(=O)OCc2c1cc1n(c2=O)Cc2cc3ccccc3nc2-1 [camptothecin]
resistance after re-introduction of 3A-Mcl-1 (T-ALL cell lines [1]; DND41 cells): increase in resistance | resistance of Fbw7-deficient T-ALL cell lines compared with wild-type Fbw7 lines to apoptotic stimuli (cell viability) (T-ALL cell lines [1]): more resistant

COc1cc([C@@H]2c3cc4c(cc3[C@@H](O[C@@H]3O[C@@H]5CO[C@@H](C)O[C@H]5[C@H](O)[C@H]3O)[C@H]3COC(=O)[C@H]23)OCO4)cc(OC)c1O [etoposide]
resistance of Fbw7-deficient T-ALL cell lines compared with wild-type Fbw7 lines to apoptotic stimuli (cell viability) (T-ALL cell lines [1]): more resistant | sensitivity to induced apoptosis after re-introduction of wild-type Fbw7 (T-ALL cell lines [1]; Fbw7-deficient HPB-ALL and JRT3-T3.5 cells, FIG. 14d): partially restored their sensitivity

CNC(=O)c1cc(Oc2ccc(NC(=O)Nc3ccc(Cl)c(C(F)(F)F)c3)cc2)ccn1 [sorafenib]
sensitivity of Fbw7-deficient T-ALL cell lines compared with wild-type Fbw7 lines (cell viability) (T-ALL cell lines [1]; 48 hours): more sensitive | sensitivity of Fbw7-deficient T-ALL cell lines (cell viability) (T-ALL cell lines [1]; 48 hours): more sensitive | effect of sorafenib on ABT-737 sensitivity (cell viability) (T-ALL cell lines [1]; Fbw7-deficient HPB-ALL cells, combined with ABT-737, 10% FBS, 48 hours, FIG. 14g): dose-dependent increase of ABT-737 sensitivity; also recorded: restored ABT-737 sensitivity | effect of sorafenib on ABT-737 sensitivity (apoptosis by FACS) (T-ALL cell lines [2]; Fbw7-deficient CMLT1 and JRT3-T3.5 cells, FIG. 14h): restored ABT-737 sensitivity | effect of sorafenib on ABT-737 sensitivity (apoptosis by FACS) (T-ALL cell lines [2]; Fbw7-deficient HPB-ALL cells, FIG. 12e): significant increase in the induction of apoptosis; also recorded: restores ABT-737 sensitivity | effect on Mcl-1 expression (Mcl-1 [4]): effectively reduce Mcl-1 expression
